Patent US20260262643A1, “HERBICIDAL BENZOXAZINES” (FMC CORPORATION, priority 2022, published 2026)

Legend:
wheat [1] = assay: Test C preemergence; assay type: in vivo, Triticum aestivum; conditions: 0 to 100 scale (0 no effect, 100 complete control); for Plant response rating, Wheat: Preemergence, 500 g ai/ha, visual rating after 10 days; for Wheat plant response rating: Test C, preemergence, 125 g ai/ha
Method in brief: (§1)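 Visual injury ratings on a 0–100 scale (100 = complete control) were made against untreated controls 10 days after treatment in the greenhouse. Compounds, formulated with surfactant in non-phytotoxic solvent, were sprayed on soil preemergence or onto one- to two-leaf plants 2–10 cm tall postemergence.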

barnyardgrass [2] = assay: Test C preemergence; assay type: in vivo, Echinochloa crusgalli; conditions: 0 to 100 scale (0 no effect, 100 complete control); for Plant response rating, Barnyardgrass: Preemergence, 500 g ai/ha, visual rating after 10 days; for Barnyardgrass plant response rating: Test C, preemergence, 125 g ai/ha
Method in brief: as §1

corn [3] = assay: Test C preemergence; assay type: in vivo, Zea mays; conditions: 0 to 100 scale (0 no effect, 100 complete control); for Plant response rating, Corn: Preemergence, 500 g ai/ha, visual rating after 10 days; for Corn plant response rating: Test C, preemergence, 125 g ai/ha
Method in brief: as §1

kochia [4] = assay: Test C preemergence; assay type: in vivo, Bassia scoparia; conditions: 0 to 100 scale (0 no effect, 100 complete control); for Plant response rating, Kochia: Preemergence, 500 g ai/ha, visual rating after 10 days; for Kochia plant response rating: Test C, preemergence, 125 g ai/ha
Method in brief: as §1

wheat [5] = assay: Test C postemergence; assay type: in vivo, Triticum aestivum; conditions: 10 days
Method in brief: as §1

galium = assay: Test C postemergence; assay type: in vivo, Galium aparine; conditions: 10 days
Method in brief: as §1

ryegrass, Italian [6] = assay: Test C postemergence; assay type: in vivo, Lolium multiflorum; conditions: 10 days
Method in brief: as §1

green foxtail [7] = assay: Test C postemergence; assay type: in vivo, Setaria viridis; conditions: 10 days
Method in brief: as §1

ragweed [8] = assay: Test C preemergence; assay type: in vivo, Ambrosia artemisiifolia; conditions: 0 to 100 scale (0 no effect, 100 complete control); for Plant response rating, Ragweed: Preemergence, 500 g ai/ha, visual rating after 10 days; for Ragweed plant response rating: Test C, preemergence, 125 g ai/ha
Method in brief: as §1

oat, wild [9] = assay: Test C postemergence; assay type: in vivo, Avena fatua; conditions: 10 days
Method in brief: as §1

green foxtail [10] = assay: Test C preemergence; assay type: in vivo, Setaria viridis; conditions: 0 to 100 scale (0 no effect, 100 complete control); for Plant response rating, Foxtail, Green: Preemergence, 500 g ai/ha, visual rating after 10 days; for Foxtail, Green plant response rating: Test C, preemergence, 125 g ai/ha
Method in brief: as §1

ragweed [11] = assay: Test C postemergence; assay type: in vivo, Ambrosia artemisiifolia; conditions: 10 days
Method in brief: as §1

corn [12] = assay: Test C postemergence; assay type: in vivo, Zea mays; conditions: 10 days
Method in brief: as §1

oat, wild [13] = assay: Test C preemergence; assay type: in vivo, Avena fatua; conditions: 0 to 100 scale (0 no effect, 100 complete control); for Plant response rating, Oat, Wild: Preemergence, 500 g ai/ha, visual rating after 10 days; for Oat, Wild plant response rating: Test C, preemergence, 125 g ai/ha
Method in brief: as §1

barnyardgrass [14] = assay: Test D flooded paddy test; assay type: in vivo, Echinochloa crus-galli; conditions: 250 g ai/ha, applied to paddy water, visual rating after 13 to 14 days, scale 0 to 100 (0 no effect, 100 complete control)
Method in brief: (§2)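 Compounds go straight into paddy water over 2-leaf plants in pots flooded to 3 cm. Greenhouse holding lasts 13 to 14 days. Injury is scored by eye against controls from 0 (none) to 100 (complete control).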

kochia [15] = assay: Test C postemergence; assay type: in vivo, Bassia scoparia; conditions: 10 days
Method in brief: as §1

soybean [16] = assay: Test C preemergence; assay type: in vivo, Glycine max; conditions: 0 to 100 scale (0 no effect, 100 complete control); for Plant response rating, Soybean: Preemergence, 500 g ai/ha, visual rating after 10 days; for Soybean plant response rating: Test C, preemergence, 125 g ai/ha
Method in brief: as §1

horseweed = assay: Test C postemergence; assay type: in vivo, Erigeron canadensis; conditions: 10 days
Method in brief: as §1

sedge, umbrella = assay: Test D flooded paddy test; assay type: in vivo, Cyperus difformis; conditions: 250 g ai/ha, applied to paddy water, visual rating after 13 to 14 days, scale 0 to 100 (0 no effect, 100 complete control)
Method in brief: as §2

barnyardgrass [17] = assay: Test C postemergence; assay type: in vivo, Echinochloa crusgalli; conditions: 10 days
Method in brief: as §1

ryegrass, Italian [18] = assay: Test C preemergence; assay type: in vivo, Lolium multiflorum; conditions: 0 to 100 scale (0 no effect, 100 complete control); for Plant response rating, Ryegrass, Italian: Preemergence, 500 g ai/ha, visual rating after 10 days; for Ryegrass, Italian plant response rating: Test C, preemergence, 125 g ai/ha
Method in brief: as §1

rice = assay: Test D flooded paddy test; assay type: in vivo, Oryza sativa; conditions: 250 g ai/ha, applied to paddy water, visual rating after 13 to 14 days, scale 0 to 100 (0 no effect, 100 complete control)
Method in brief: as §2

ducksalad = assay: Test D flooded paddy test; assay type: in vivo, Heteranthera limosa; conditions: 250 g ai/ha, applied to paddy water, visual rating after 13 to 14 days, scale 0 to 100 (0 no effect, 100 complete control)
Method in brief: as §2

soybean [19] = assay: Test C postemergence; assay type: in vivo, Glycine max; conditions: 10 days
Method in brief: as §1

pigweed, palmer [20] = assay: Test C postemergence; assay type: in vivo, Amaranthus palmeri; conditions: 10 days
Method in brief: as §1

blackgrass [21] = assay: Test C postemergence; assay type: in vivo, Alopecurus myosuroides; conditions: 10 days
Method in brief: as §1

blackgrass [22] = assay: Test C preemergence; assay type: in vivo, Alopecurus myosuroides; conditions: 0 to 100 scale (0 no effect, 100 complete control); for Plant response rating, Blackgrass: Preemergence, 500 g ai/ha, visual rating after 10 days; for Blackgrass plant response rating: Test C, preemergence, 125 g ai/ha
Method in brief: as §1

pigweed, palmer [23] = assay: Test C preemergence; assay type: in vivo, Amaranthus palmeri; conditions: 0 to 100 scale (0 no effect, 100 complete control); for Plant response rating, Pigweed, Palmer: Preemergence, 500 g ai/ha, visual rating after 10 days; for Pigweed, Palmer plant response rating: Test C, preemergence, 125 g ai/ha
Method in brief: as §1

[24] = 125 g ai/ha, postemergence, 0 to 100 scale, 0 no effect, 100 complete control
[25] = Postemergence, 500 g ai/ha, visual 0 to 100 scale (0 no effect, 100 complete control)

## COc1c(F)cc(-n2cnc(C(C)C)n2)cc1C(=O)N1C[C@H](C)Oc2c(Cl)cccc21 [Compound 177]
Wheat [1]
  Plant response rating, Wheat: 60
  Wheat plant response rating: 30
Barnyardgrass [2]
  Plant response rating, Barnyardgrass: 100
  Barnyardgrass plant response rating: 100
Corn [3]
  Plant response rating, Corn: 30
  Corn plant response rating: 30
Kochia [4]
  Plant response rating, Kochia: 100
  Kochia plant response rating: 80
Wheat [5]; [24]
  Plant response rating, Wheat: 30
Wheat [5]; [25]
  Plant response rating, Wheat: 50
galium; [24]
  Plant response rating, Galium: 90
galium; [25]
  Plant response rating, Galium: 100
ryegrass, Italian [6]; [24]
  Plant response rating, Ryegrass, Italian: 80
ryegrass, Italian [6]; [25]
  Plant response rating, Ryegrass, Italian: 90
Green foxtail [7]; [24]
  Plant response rating, Foxtail, Green: 90
Green foxtail [7]; [25]
  Plant response rating, Foxtail, Green: 90
Ragweed [8]
  Plant response rating, Ragweed: 90
  Ragweed plant response rating: 90
oat, wild [9]; [24]
  Plant response rating, Oat, Wild: 60
oat, wild [9]; [25]
  Plant response rating, Oat, Wild: 80
Green foxtail [10]
  Plant response rating, Foxtail, Green: 100
  Foxtail, Green plant response rating: 100
Ragweed [11]; [24]
  Plant response rating, Ragweed: 80
Ragweed [11]; [25]
  Plant response rating, Ragweed: 70
Corn [12]; [24]
  Plant response rating, Corn: 40
Corn [12]; [25]
  Plant response rating, Corn: 60
oat, wild [13]
  Plant response rating, Oat, Wild: 90
  Oat, Wild plant response rating: 80
Barnyardgrass [14]
  Plant response rating, Barnyardgrass (Flood): 35
Kochia [15]; [24]
  Plant response rating, Kochia: 90
Kochia [15]; [25]
  Plant response rating, Kochia: 100
Soybean [16]
  Plant response rating, Soybean: 90
  Soybean plant response rating: 60
horseweed; [24]
  Plant response rating, Horseweed: 30
horseweed; [25]
  Plant response rating, Horseweed: 80
sedge, umbrella
  Plant response rating, Sedge, Umbrella (Flood): 95
Barnyardgrass [17]; [24]
  Plant response rating, Barnyardgrass: 30
Barnyardgrass [17]; [25]
  Plant response rating, Barnyardgrass: 70
ryegrass, Italian [18]
  Plant response rating, Ryegrass, Italian: 100
  Ryegrass, Italian plant response rating: 100
rice
  Plant response rating, Rice (Flood): 0
ducksalad
  Plant response rating, Ducksalad (Flood): 50
Soybean [19]; [24]
  Plant response rating, Soybean: 100
Soybean [19]; [25]
  Plant response rating, Soybean: 100
pigweed, palmer [20]; [24]
  Plant response rating, Pigweed, Palmer: 90
pigweed, palmer [20]; [25]
  Plant response rating, Pigweed, Palmer: 100
Blackgrass [21]; [24]
  Plant response rating, Blackgrass: 90
Blackgrass [21]; [25]
  Plant response rating, Blackgrass: 90
Blackgrass [22]
  Plant response rating, Blackgrass: 60
  Blackgrass plant response rating: 40
pigweed, palmer [23]
  Plant response rating, Pigweed, Palmer: 100
  Pigweed, Palmer plant response rating: 100

## CC(C)c1ncn(-c2ccc(S(=O)(=O)C(F)(F)F)c(C(=O)N3C[C@H](C)Oc4c(Cl)cccc43)c2)n1 [Compound 229]
Wheat [1]
  Plant response rating, Wheat: 0
  Wheat plant response rating: 0
Barnyardgrass [2]
  Plant response rating, Barnyardgrass: 0
  Barnyardgrass plant response rating: 0
Corn [3]
  Plant response rating, Corn: 0
  Corn plant response rating: 0
Kochia [4]
  Plant response rating, Kochia: 0
  Kochia plant response rating: 0
Wheat [5]; [24]
  Plant response rating, Wheat: 0
Wheat [5]; [25]
  Plant response rating, Wheat: 0
galium; [24]
  Plant response rating, Galium: 0
galium; [25]
  Plant response rating, Galium: 0
ryegrass, Italian [6]; [24]
  Plant response rating, Ryegrass, Italian: 0
Green foxtail [7]; [24]
  Plant response rating, Foxtail, Green: 0
Green foxtail [7]; [25]
  Plant response rating, Foxtail, Green: 0
Ragweed [8]
  Plant response rating, Ragweed: 0
  Ragweed plant response rating: 0
oat, wild [9]; [24]
  Plant response rating, Oat, Wild: 0
oat, wild [9]; [25]
  Plant response rating, Oat, Wild: 0
Green foxtail [10]
  Plant response rating, Foxtail, Green: 0
  Foxtail, Green plant response rating: 0
Ragweed [11]; [24]
  Plant response rating, Ragweed: 0
Ragweed [11]; [25]
  Plant response rating, Ragweed: 0
Corn [12]; [24]
  Plant response rating, Corn: 0
Corn [12]; [25]
  Plant response rating, Corn: 0
oat, wild [13]
  Plant response rating, Oat, Wild: 0
  Oat, Wild plant response rating: 0
Barnyardgrass [14]
  Plant response rating, Barnyardgrass (Flood): 0
Kochia [15]; [24]
  Plant response rating, Kochia: 0
Kochia [15]; [25]
  Plant response rating, Kochia: 0
Soybean [16]
  Plant response rating, Soybean: 0
  Soybean plant response rating: 0
horseweed; [24]
  Plant response rating, Horseweed: 0
horseweed; [25]
  Plant response rating, Horseweed: 0
sedge, umbrella
  Plant response rating, Sedge, Umbrella (Flood): 0
Barnyardgrass [17]; [24]
  Plant response rating, Barnyardgrass: 0
Barnyardgrass [17]; [25]
  Plant response rating, Barnyardgrass: 0
ryegrass, Italian [18]
  Plant response rating, Ryegrass, Italian: 10
  Ryegrass, Italian plant response rating: 0
rice
  Plant response rating, Rice (Flood): 0
ducksalad
  Plant response rating, Ducksalad (Flood): 0
Soybean [19]; [24]
  Plant response rating, Soybean: 40
Soybean [19]; [25]
  Plant response rating, Soybean: 40
pigweed, palmer [20]; [24]
  Plant response rating, Pigweed, Palmer: 0
pigweed, palmer [20]; [25]
  Plant response rating, Pigweed, Palmer: 0
Blackgrass [21]; [24]
  Plant response rating, Blackgrass: 0
Blackgrass [21]; [25]
  Plant response rating, Blackgrass: 0
Blackgrass [22]
  Plant response rating, Blackgrass: 0
  Blackgrass plant response rating: 0
pigweed, palmer [23]
  Plant response rating, Pigweed, Palmer: 0
  Pigweed, Palmer plant response rating: 0
